In PMC6300282, “Sulphamethazine derivatives as immunomodulating agents: New therapeutic strategies for inflammatory diseases” (PLoS ONE, 2018):
Values after ≈ are worked out from the molar mass of the structure shown.

Columns and labels:
[1] = system: Salmonella typhi (ATCC 14028); experiment: Microplate Alamar Blue Assay, Salmonella typhi; assay type: cell-based; conditions: Salmonella enterica; 200 μg/mL; NI = No inhibition; read-out: Percentage (%) Inhibition, Slamonella typhi
[2] = system: zymosan activated whole blood phagocytes; experiment: Oxidative burst assay (luminol-enhanced chemiluminescence), whole blood; assay type: cell-based; conditions: human whole blood, serum opsonized zymosan, three doses 1, 10, 100 μg/mL, mean ± SD of three, NA = Not active, read-out: Oxidative Burst Inhibition (IC50) WB
Experimental: Luminol-enhanced chemiluminescence assay was performed, as described by Helfandet al., 1982 [17], with some modifications. Briefly 25 μL of diluted whole blood in HBSS^++ (Hanks Balanced Salt Solution, containing calcium chloride and magnesium chloride) [Sigma, St. Louis, USA] was incubated with 25 μL of three different concentrations of compounds (1, 10, and 100 μg/mL), each in triplicate. Control wells received HBSS^++ and cells, but no compounds. Test was performed in white half area 96-well plates [Costar, NY, USA], which was incubated at 37 °C for 15 minutes in the thermostat chamber of luminometer [Labsystems, Helsinki, Finland]. After incubation, 25 μL of serum opsonized zymosan (SOZ) [Fluka, Buchs, Switzerland] and 25 μL of intracellular reactive oxygen species detecting probe, luminol [Research Organics, Cleveland, OH, USA] were added into each well, except blank wells (containing only HBSS^++). The level of the ROS was recorded in luminometer in term of relative light units (RLU).

[3] = system: TNF-α production from THP-1 human monocytic leukemia cell line; experiment: TNF-α production (ELISA), LPS stimulated THP-1 cells; assay type: cell-based; conditions: Homo sapiens; PMA-differentiated THP-1 cells, 50 ng/mL LPS, 4 hours; three doses 1, 10, 100 μg/mL; mean ± SD of three; read-out: TNF-α Inhibition (IC50)
Source text: RPMI-1640 (R8758, Sigma Aldrich, St. Louis, USA); L-glutamine (25030081, Gibco, California, USA); D-glucose (G8270, Sigma Aldrich, St. Louis, USA); 2-mercaptoethanol (190242, MP Biomedicals, lllkirch, France); sodium pyruvate (11360–070, Gibco, California, USA); FBS (A11-104, PAA Laboratories, Pasching, Austria); HEPES (H3375, Sigma Aldrich, St. Louis, USA); PMA (151864, MP Biomedicals, lllkirch, France); lipopolysaccharide B of E. coli 0111:B4 (LPS) (3922–25, DIFCO Laboratories, USA); 24-well tissue culture plates (CLS3524, Corning, Dublin, USA); Flat bottom 96-well tissue culture plates (CLS3300, Corning, New York, USA). BSA (151429, MP Biomedicals, lllkirch, France); PBS tablets (41620016–4, Bioworld, Dublin, Ireland); Tween 20 (822184, Merck, Damstadt, Germany); Human TNF-α DuoSet ELISA Kit (DY210, R&D Systems, Minneapolis, USA); Human IL-1β DuoSet ELISA Kit (DY201, R&D Systems, Minneapolis, USA); and Human IL-2 DuoSet ELISA Kit (DY202, R&D Systems, Minneapolis, USA); ELISA plate sealers (DY992, R&D Systems, Minneapolis, USA); Clear flat bottom 96-well microplates (DY990, R&D Systems, Minneapolis, USA). Human monocytic leukemia cells THP-1 were obtained from (European Collection of Cell Cultures, UK). The cells were maintained in RPMI-1640 containing 5.5 mmol/L glucose (BioM Laboratories, Chemical Division, Malaysia), 50 μmol/L mercaptoethanol (Merck Damstadt, Germany), 10% FBS (fetal bovine serum), 2 mmol/L; L-glutamine (PAA Laboratories, GmbH, Pasching, Austria). Cells were grown in 75 cc flasks, harvested and 2.5×10^5 cells/mL was then plated in 24-well tissue culture plates. 20 ng/mL of phorbol-12-myristate-13-acetate (PMA), (SERVA, Heidelberg, Germany) was added followed by incubation for 24 hours at 37 °C in 5% CO2to convert them into macrophage like cell. Cells were then stimulated with E. coli lipopolysacchride B, (DIFCO Laboratories, michigon, USA) at a final concentration of 50 ng/mL and treated with compounds at three different concentration (1, 10 and 100 μg/mL) and then incubated for 4 hours at 37 °C in 5% CO2. The supernatants collected were analyzed for the level of TNF -α using the human TNF-α Duo Set ELISA (R&D Systems, Minneapolis, USA), and according to manufacturer’s instructions.

[4] = system: Staphylococcus aureus (ATCC 25923); experiment: Microplate Alamar Blue Assay, Staphylococcus aureus; assay type: cell-based; conditions: Staphylococcus aureus, ATCC25923; 200 μg/mL; NI = No inhibition; read-out: Percentage (%) Inhibition, Staphylococcus aureus

SMILES | inhibition at 200 µg/mL [1] | IC50 [2] | IC50 [3] | inhibition at 200 µg/mL [4] | melting point
Cc1cc(C)nc(NS(=O)(=O)c2ccc(NC(=O)c3cc(F)cc(C(F)(F)F)c3)cc2)n1 [Compound 8, N-(4-(N-(4,6-dimethylpyrimidin-2-yl)sulfamoyl)phenyl)-3-fluoro-5-(trifluoromethyl)benzamide] | 29.4% | 4.2 ± 0.2 µg/mL | 9.5 ± 0.4 µg/mL (≈ 20.3 µM) | 47.3% | 
Cc1cc(C)nc(NS(=O)(=O)c2ccc(NC(=O)C(Br)CBr)cc2)n1 (stereo not drawn) [Compound 3, 2,3-Dibromo-N-(4-(N-(4,6-dimethylpyrimidin-2-yl)sulfamoyl)phenyl)propanamide] | < 0% | 6.5 ± 1.3 µg/mL | < 1 µg/mL | 60% | 
Cc1cc(C)nc(NS(=O)(=O)c2ccc(NC(=O)c3cc(C(F)(F)F)cc(C(F)(F)F)c3)cc2)n1 [Compound 6, N-(4-(N-(4,6-dimethylpyrimidin-2-yl)sulfamoyl)phenyl)-3,5-bis(trifluoromethyl)benzamide] | < 0% | 5.7 ± 0.8 µg/mL | < 1 µg/mL | 32.7% | 
Cc1cc(C)nc(NS(=O)(=O)c2ccc(N)cc2)n1 [compound 1, Sulfamethazine, reference compound] | < 0% | 8.9 ± 1.3 µg/mL | > 100 µg/mL | 42.2% | 
Cc1cc(C)nc(NS(=O)(=O)c2ccc(NC(=O)c3ccc(F)c(C(F)(F)F)c3)cc2)n1 [Compound 10, N-(4-(N-(4,6-dimethylpyrimidin-2-yl)sulfamoyl)phenyl)-4-fluoro-3-(trifluoromethyl)benzamide] | < 0% | 10.6 ± 0.5 µg/mL | 34.5 ± 4.1 µg/mL (≈ 73.6 µM) | 1.09% | 
Cc1cc(C)nc(NS(=O)(=O)c2ccc(NC(=O)c3ccc(CCl)cc3)cc2)n1 [Compound 5, 4-(Chloromethyl)-N-(4-(N-(4,6-dimethylpyrimidin-2-yl)sulfamoyl)phenyl)benzamide] | < 0% | 20.5 ± 2.2 µg/mL | < 1 µg/mL | 35% | 
Cc1cc(C)nc(NS(=O)(=O)c2ccc(NC(=O)c3cccc([N+](=O)[O-])c3)cc2)n1 [Compound 13, N-(4-(N-(4,6-dimethylpyrimidin-2-yl)sulfamoyl)phenyl)-3-nitrobenzamide] | < 0% | 9.2 ± 0.6 µg/mL | 19.5 ± 1 µg/mL (≈ 45.6 µM) | 34.3% | 251 to 253 °C
Cc1cc(C)nc(NS(=O)(=O)c2ccc(NC(=O)c3cccc(CCl)c3)cc2)n1 [Compound 4, 3-(Chloromethyl)-N-(4-(N-(4,6-dimethylpyrimidin-2-yl)sulfamoyl)phenyl)benzamide] | < 0% | 7.3 ± 0.4 µg/mL | < 1 µg/mL | 3.21% | 
Cc1cc(C)nc(NS(=O)(=O)c2ccc(NC(=O)c3cc(F)cc(F)c3)cc2)n1 [Compound 7, N-(4-(N-(4,6-dimethylpyrimidin-2-yl)sulfamoyl)phenyl)-3,5-difluorobenzamide] | 13.1% | 5.8 ± 0.6 µg/mL | 38.9 ± 0.7 µg/mL (≈ 93 µM) | 54.3% | 237 to 240 °C
Cc1cc(C)nc(NS(=O)(=O)c2ccc(NC(=O)c3ccc(F)cc3)cc2)n1 [Compound 12, N-(4-(N-(4,6-dimethylpyrimidin-2-yl)sulfamoyl)phenyl)-4-fluorobenzamide] | 19% | 10.6 ± 0.5 µg/mL | 9.9 ± 0.2 µg/mL (≈ 24.7 µM) | 49.7% | 
Cc1cc(C)nc(NS(=O)(=O)c2ccc(NC(=O)C(C)Cl)cc2)n1 (stereo not drawn) [Compound 11, 2-Chloro-N-(4-(N-(4,6-dimethylpyrimidin-2-yl)sulfamoyl)phenyl)propanamide] | 29.6% | 34.6 ± 1.2 µg/mL | > 100 µg/mL | < 0% | 256 to 258 °C
Cc1cc(C)nc(NS(=O)(=O)c2ccc(NC(=O)c3ccc(C(F)(F)F)c(F)c3)cc2)n1 [Compound 9, N-(4-(N-(4,6-dimethylpyrimidin-2-yl)sulfamoyl)phenyl)-3-fluoro-4-(trifluoromethyl)benzamide] | 0.94% | 5.7 ± 0.2 µg/mL | 2.1 ± 0.2 µg/mL (≈ 4.48 µM) | 27.9% | 
